Reference: patent publication US20200316051A1, “TLR7/8 ANTAGONISTS AND USES THEREOF” (Merck Patent GmbH, priority 2017, published 2020)

Columns and labels:
[1] = tested on: TLR7/8; assay: Cytokine production in human PBMCs stimulated with TLR7 agonist, let7c miRNA or let7/DOTAP in the presence of TLR7/8 antagonist; format: cell-based
Experimental: Human PBMCs were treated with TLR7 agonist (TLR7), let7c miRNA or transfected with let7c miRNA (let7/DOTAP) in the presence of TLR7/8 antagonist (Compound 467 in Table 1 above). Levels of IL-6 (FIG. 3) and IFNα (FIG. 4) were measured following overnight incubation.

[2] = tested on: TLR7/8; assay: Activation of human PBMCs by LL37 alone or in complex with GU trimer or let-7c miRNA, with or without TLR7/8 inhibitor; format: cell-based
Experimental: Binding of LL37 to miRNA enables delivery of miRNA to human PBMCs and stimulate TLR7/8-mediated production of cytokines. Human recombinant LL37 protein was used alone, or in a complex with GU trimer or let-7c miRNA to activate human PBMCs in the presence or absence of TLR7/8 inhibitor (Compound 467 in Table 1 above). Levels of IL-6 (FIG. 5) and IFNα (FIG. 6) were measured following overnight incubation.

Question: Which results are given for C[C@@H]1CN(c2ccc(C#N)c3nccnc23)C[C@H](CN2CCC(N3CCOCC3)CC2)O1 [Compound 467]?
Answer: levels of IL-6 induced by let-7 miRNA ([1]; overnight incubation (FIG. 3)): blocks production of cytokines; levels of IFNα induced by let-7 miRNA ([1]; overnight incubation (FIG. 4)): blocks production of cytokines; TLR7/8 activation by LL37-RNA complexes, levels of IL-6 ([2]; overnight incubation (FIG. 5)): the activation is suppressed; TLR7/8 activation by LL37-RNA complexes, levels of IFNα ([2]; overnight incubation (FIG. 6)): the activation is suppressed
